Results on two compounds are retold here after patent publication EP2070923A1, “Insecticide iminoheterocycles” (priority 2007, dated 2009).

The nature of series [1]: logP (HCOOH). To be noted: hplc, formic acid.
The test system of series [2] is Boophilus microplus. Kind of series: Boophilus microplus test (injection). It counts as in vivo. The conditions noted are these: 20 µg/Tier; injection into abdomen; 100 % = no tick laid fertile eggs. An excerpt:
Boophilus microplus -Test (Injektion)
Zur Herstellung einer zweckmäßigen Wirkstoffzubereitung vermischt man 1 Gewichtsteil Wirkstoff mit der angegebenen Menge Lösungsmittel und verdünnt das Konzentrat mit Lösungsmittel auf die gewünschte Konzentration. Die Wirkstofflösung wird in das Abdomen (Boophilus microplus) injiziert, die Tiere werden in Schalen überführt und in einem klimatisierten Raum aufbewahrt. Nach der gewünschten Zeit wird die Wirkung in % bestimmt. Dabei bedeutet 100%, dass keine Zecke fertile Eier gelegt hat. Bei diesem Test zeigen z. B. die folgenden Verbindungen der Herstellungsbeispiele eine Wirkung von = 80 % bei einer Aufwandmenge von 20 µg/Tier: • Bsp. Nr. 43, 44, 45, 46, 63, 64, 65, 66

Series [3] deals with Myzus persicae. Kind of series: Myzus test (spray treatment). It counts as in vivo. The conditions noted are these: foliar, 500 g/ha, spray on Brassica pekinensis leaf discs, 100 % = all aphids killed, read-out: Wirkung. An excerpt: Myzus-Test (Spritzbehandlung)
Zur Herstellung einer zweckmäßigen Wirkstoffzubereitung vermischt man 1 Gewichtsteil Wirkstoff mit den angegebenen Mengen Lösungsmittel und Emulgator und verdünnt das Konzentrat mit emulgatorhaltigem Wasser auf die gewünschte Konzentration. Chinakohlblattscheiben (Brassica pekinensis), die von allen Stadien der Grünen Pfirsichblattlaus (Myzus persicae) befallen sind, werden mit einer Wirkstoffzubereitung der gewünschten Konzentration gespritzt. Nach der gewünschten Zeit wird die Wirkung in % bestimmt. Dabei bedeutet 100 %, dass alle Blattläuse abgetötet wurden; 0 % bedeutet, dass keine Blattläuse abgetötet wurden. Bei diesem Test zeigen z. B. die folgenden Verbindungen der Herstellungsbeispiele eine Wirkung von ≥ 80 % bei einer Aufwandmenge von 500 g/ha: • Bsp. Nr. 2, 3, 31, 32, 33, 36, 37, 39, 40, 41, 42, 43, 44, 45, 46, 63, 64, 65, 66, 86, 87, 88, 90, 95, 96, 97, 99, 103

Series [4] deals with Lucilia cuprina Larven. Briefly: Lucilia cuprina test (treated horse meat, larvae). It counts as in vivo. The conditions noted are these: 100 % = all larvae killed, read-out: Abtötung. An excerpt: Zur Herstellung einer zweckmäßigen Wirkstoffzubereitung vermischt man 1 Gewichtsteil Wirkstoff mit der angegebenen Menge Wasser und verdünnt das Konzentrat mit Wasser auf die gewünschte Konzentration. Gefäße, die Pferdefleisch enthalten, das mit der Wirkstoffzubereitung der gewünschten Konzentration behandelt wurde, werden mit Lucilia cuprina Larven besetzt. Nach der gewünschten Zeit wird die Abtötung in % bestimmt. Dabei bedeutet 100 %, dass alle Larven abgetötet wurden; 0 % bedeutet, dass keine Larven abgetötet wurden. Bei diesem Test zeigen z. B. die folgenden Verbindungen der Herstellungsbeispiele eine Wirkung von ≥ 80 % bei einer Aufwandmenge von 100 ppm: • Bsp. Nr. 65

Series [5] has as its system Tetranychus urticae. Kind of series: Tetranychus test, OP-resistant (spray treatment). The format is in vivo. The conditions noted are these: foliar, spray on Phaseolus vulgaris leaf discs, 100 % = all spider mites killed, read-out: Wirkung. An excerpt: Tetranychus-Test, OP-resistent (Spritzbehandlung)
Zur Herstellung einer zweckmäßigen Wirkstoffzubereitung vermischt man 1 Gewichtsteil Wirkstoff mit den angegebenen Mengen Lösungsmittel und Emulgator und verdünnt das Konzentrat mit emulgatorhaltigem Wasser auf die gewünschte Konzentration. Bohnenblattscheiben (Phaseolus vulgaris), die von allen Stadien der Gemeinen Spinnmilbe (Tetranychus urticae) befallen sind, werden mit einer Wirkstoffzubereitung der gewünschten Konzentration gespritzt. Nach der gewünschten Zeit wird die Wirkung in % bestimmt. Dabei bedeutet 100 %, dass alle Spinnmilben abgetötet wurden; 0 % bedeutet, dass keine Spinnmilben abgetötet wurden. Bei diesem Test zeigen z. B. die folgenden Verbindungen der Herstellungsbeispiele eine Wirkung von ≥ 80 % bei einer Aufwandmenge von 100 g/ha: • Bsp. Nr. 83

What is called chromatographic logP is a lipophilicity value derived from retention on a column. As for `COCCNC(=S)N1CCOC1=N[C@@H](C)c1cccs1` [Beispiel 65], the chromatographic logP in series [1] came out at 3.38. For the same compound, the Wirkung in series [2] was 80%. The mortality at 500 g/ha in series [3] was no less than 80%. For the same compound, the mortality at 100 ppm in series [4] was no less than 80%.
Turning to `COCCNC(=S)N1CCOC1=NCc1cccn1C` [Beispiel 83], in series [1], the chromatographic logP was 2.37. Besides, the mortality at 100 g/ha in series [5] is no less than 80%.
